This experiment concerns A549-luc cells. As to the kind of experiment: siRNA delivery, luciferase gene silencing. In kind it is cell-based, human. The conditions noted are these: 10 nM siRNA, 48 h. On the procedure: The A549-luc cells that stably express the reporter gene luciferase GL3 (1-2 x 10^10 RLU/mg protein) were established by transfecting human lung carcinoma A549 cells (CCL-185; ATCC) with pGL3-Luc plasmid (Clontech, Mountain View, CA, USA) using jetPEI™ as delivery system (Polyplus-Transfection, Illkirch, France). Cells were grown in RPMI 1640 medium (Eurobio, Les Ulis, France) supplemented with 10% Fetal Bovine Serum (Eurobio, Les Ulis, France), 1% antibiotic solution (pencillin-streptomycin, Gibco-invitrogen) and maintained under 0.8 µg/mL G418 selection (Promega, Madison, WI, USA) at 37 °C in a 5% CO2 humidified atmosphere. […]
Luciferase gene expression was determined 48 h after delivery with a Luciferase Assay System (Promega, Charbonnières, France) according to manufacturer's instructions. The luminescence was quantified using 2 µL of cell lysate with a Centro LB luminometer (Berthold, Thoiry, France). Protein concentration in cell lysate was measured by using a BCA assay kit (Interchim, Montluçon, France), according to manufacturer's instructions. After expressing the luciferase activity as relative light units integrated over 10 s per mg of cell protein (RLU/mg), the luciferase gene silencing was calculated relative to the luciferase activity of non-transfected A549-luc cells.

The record followed here is EP3225257A1, “AMPHIPHILIC MONOMERS BASED NANOVECTORS AND THEIR USE FOR SIRNA DELIVERY” (Université de Strasbourg, priority 2016, dated 2017).

Regarding C25diynetrioxa-L-Histidine [compound 1], the specific inhibition (40 µg/ml, polymerized micelles of the surfactant) was 80%.

Where the note is “polymerized micelles of the surfactant at increasing concentrations”, C25diynetrioxaamine [compound 2] came in with a maximum inhibition of 25%.
